Our source for the EC50 and AC50 values is ChEMBL document CHEMBL1201862, “PubChem BioAssay data set” (2004).

Test [1] concerns the target T1, Short transient receptor potential channel 4 (Mus musculus, UniProt Q9QUQ5).
T1 sequence (Q9QUQ5 whole entry): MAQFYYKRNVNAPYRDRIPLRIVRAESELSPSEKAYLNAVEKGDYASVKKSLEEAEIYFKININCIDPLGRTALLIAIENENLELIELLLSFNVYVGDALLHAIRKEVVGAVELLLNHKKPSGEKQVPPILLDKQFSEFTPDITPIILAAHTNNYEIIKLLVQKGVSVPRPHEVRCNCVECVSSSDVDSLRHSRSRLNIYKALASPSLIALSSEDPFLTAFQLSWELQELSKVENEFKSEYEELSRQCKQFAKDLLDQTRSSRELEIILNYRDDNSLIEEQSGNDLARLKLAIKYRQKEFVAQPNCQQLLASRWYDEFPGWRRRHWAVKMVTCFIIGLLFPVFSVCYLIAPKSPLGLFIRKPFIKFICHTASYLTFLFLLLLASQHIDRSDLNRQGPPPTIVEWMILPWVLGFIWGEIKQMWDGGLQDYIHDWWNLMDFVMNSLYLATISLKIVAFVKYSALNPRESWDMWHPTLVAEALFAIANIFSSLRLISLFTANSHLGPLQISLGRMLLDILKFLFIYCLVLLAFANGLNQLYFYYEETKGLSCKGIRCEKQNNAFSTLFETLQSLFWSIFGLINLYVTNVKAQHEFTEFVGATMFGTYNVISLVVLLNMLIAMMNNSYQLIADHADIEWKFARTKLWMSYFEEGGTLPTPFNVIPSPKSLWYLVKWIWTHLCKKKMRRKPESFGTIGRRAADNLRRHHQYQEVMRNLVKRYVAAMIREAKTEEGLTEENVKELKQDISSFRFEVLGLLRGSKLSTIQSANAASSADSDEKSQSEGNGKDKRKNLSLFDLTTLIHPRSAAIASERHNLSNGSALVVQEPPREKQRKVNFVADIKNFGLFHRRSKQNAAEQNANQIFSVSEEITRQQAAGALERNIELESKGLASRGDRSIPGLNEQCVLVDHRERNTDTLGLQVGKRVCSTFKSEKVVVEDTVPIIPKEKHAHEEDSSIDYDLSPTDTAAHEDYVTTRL
Put plainly: mouse TRPC4 channel inhibitors, dose response, cell-based, HEK293 TRPC4/mu-opioid, Fluo-4 calcium (AID 434942).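 Further: potency of inhibitors blocking the TRPC4 calcium response.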 In kind it is functional.

The nature of test [2]: Luminescence Cell-Based Dose Retest to Confirm Inhibitors of Cancer Stem Cells. [Related pubchem assays (depositor defined):AID2717, AID2721]. In kind it is functional. As to conditions: Homo sapiens.

Active and inactive are the calls of the source.
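Wherever AC50 is given: cells exposed to compound for roughly 70 hours or longer before luminescence read.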

The term EC50 denotes the concentration giving half of the maximal effect. With `O=[N+]([O-])c1ccc(O)c(C2=NNC(c3ccccc3F)C2)c1` (configuration not stated), the EC50 in test [1] was 15 µM (active).
Usually AC50 stands for the midpoint of the concentration-response curve, whichever way the signal moves. With `Cc1oc2c(c1C(=O)N1CCC(C)CC1)C(=O)c1ccccc1C2=O`, in test [2], the concentration at half-maximal activity (AC50) is 6.94 µM (active).
